# Results published in patent US4293713A, “Novel 1,1,3,5-substituted biuret compound and a pharmaceutical composition containing the same” (priority 1979, dated 1981).
# Where two headings read alike, the source gives them in different places.
# Key:
# [1] = Acute toxicity (oral, 7 days observation); format: in vivo; conditions: mouse, in vivo, read-out: Acute toxicity, 50% lethal dose, LD50 (values with Δ marks)
# Description: (§1) Next, several tests for determining the pharmacological properties, in that acute toxicity, anti-pyretic activity, analgesic activity and anti-inflammatory activity of the present 1,1,3,5-substituted biuret compounds of the formula (1) were conducted and the test results are shown in Table (2). In the tests, each compounds to be tested was used as a suspension in 0.25% carboxymethylcellulose solution. Methods for testing are explained as follows:
# (§2) The ddy strain of male mice (body weight, 20-25 g) were used as test animals. The mice were fasted overnight and the compound to be tested was administered orally. […] The lethal dose (mg/kg, body weight) of the test compound was determined in connection with the death number of mice/the number of mice tested. In Table 2, the values indicated with Δ marks are 50% lethal dose, LD50 (mg/kg, body weight).
# [2] = test system: Wistar strain of male rats; experiment: Anti-pyretic activity (dry-yeast induced fever); format: in vivo, rat (Wistar strain; conditions: oral, up to 4 hours after administration, dose not given
# Description: as §1
# According to the method reported by Tanabe [Folia Pharmacologia Japonica, Vol. 73, pp. 803 (1977)], the Wistar strain of male rats (150-180 g body weight) were used as test animals. The rats were fasted overnight, and 1 ml/100 g (body weight) of 10% dry-yeast suspension were subcutaneously injected on the back of the rats. Five hours after the injection, the test compound was administered orally, then the body temperature of the rat was measured at time sequences. Anti-pyretic activity of the test compound was determined as the FI (febril index) by integrating pyrogenetic curve up to 4 hours after the administration of the test compound with time, and indicated as inhibitory ratio (%) shown by the following formula, [formula]
# ddy strain of male mice [3] = experiment: Analgesic activity, acetic acid-induced stretching method; format: in vivo, mouse (ddy strain; conditions: Mus musculus; for ED50: read-out: Analgesic activity, acetic acid-induced stretching method, 50% effective dose, ED50 (values with Δ marks)
# Description: as §1
# According to the method reported by Koster et al., [Fed. Proc., Vol. 18, pp. 412 (1959)], the ddy strain of male mice (body weight, 20-25 g) were used as test animals. The mice were fasted overnight, 100 mg/kg body weight of the test compound was administered orally, then 1 hour after the administration, 0.2 ml of 0.7% acetic acid solution was injected intraperitoneally. The acetic acid-induced stretching symptom of mouse was observed. Analgesic activity of the test compound was calculated as the inhibitory ratio (%). In Table 2, the values in Parentheses show the data obtained from the test by using the dosage other than 100 mg/kg body weight. Further, the values indicated with Δ marks show 50% effective dose, ED50 (mg/kg body weight).
# ddy strain of male mice [4] = experiment: Analgesic activity, Haffner method; format: in vivo, mouse (ddy strain; conditions: with threshold morphine hydrochloride s.c.; for Analgesic activity, Haffner method, 50% effective dose, ED50 (values with Δ marks): oral, range in parentheses; for Analgesic activity, Haffner method, inhibitory ratio: 100 mg/kg oral
# Description: as §1
# According to the modified method reported by Fujimura et al., [Bulletin of the Institute for Chemical Research, Kyoto University, No. 25, pp. 36 (1951)], the ddy strain of male mice (body weight, 20-25 g) were used as test animals. The mice were fasted overnight, 100 mg/kg body weight of the test compound was administered orally, then 45 minutes after the administration, the threshold amount (1.5-2.5 mg/kg body weight) of morphine hydrochloride was injected subcutaneously. Then 1-hour pain reaction of the mouse caused by a clamp was observed. Analgesic activity of the test compound was calculated as the inhibitory ratio (%). In Table 2, the values in parentheses show the data obtained from the test by using the dosage other than 100 mg/kg body weight. Further, the values indicated with Δ marks show 50% effective dose, ED50 (mg/kg body weight).
# [5] = test system: Wistar strain of male rats; experiment: Anti-inflammatory activity, acute carrageenin-induced inflammatory test; format: in vivo, rat (Wistar strain; conditions: Rattus norvegicus
# Description: as §1
# According to the method of acute carrageenin-induced inflammatory test [Folia Pharmacologia Japonica, Vol. 56, pp. 575 (1960)], the Wistar strain of male rats (body weight, 150-180 g) were used as test animals. The rats were fasted overnight, 100 mg/kg body weight of the test compound was administered orally, then 1 hour after the administration, 0.1 ml of 1% carrageenin solution, as the inflammation inducing agent, was injected subcutaneously to the hindpaw of the rat and the volume of the hindpaw was measured at time sequences. Anti-inflammatory activity of the test compound was calculated as inflammation inhibitory ratio (%) at 3 hours after the injection of the inflammation inducing agent.
# ddy strain of male mice [6] = experiment: Acute toxicity (oral, 7 days observation); format: in vivo; conditions: oral, mice, 7 days
# Description: as §1, §2
# [7] = po, 3 h, read-out: Anti-inflammatory activity, inflammation inhibitory ratio
# [8] = po, read-out: Analgesic activity, acetic acid-induced stretching method, inhibitory ratio
# [9] = 100 mg/kg oral, rats, 3 hours after carrageenin, read-out: Anti-inflammatory activity, inflammation inhibitory ratio
# [10] = po, 2 h, read-out: Anti-inflammatory activity, inflammation inhibitory ratio (2 hours value)
# [11] = 100 mg/kg oral, rats, 2 hours value, read-out: Anti-inflammatory activity, inflammation inhibitory ratio (2 hours value)
# [12] = 100 mg/kg oral, mice, read-out: Analgesic activity, acetic acid-induced stretching method, inhibitory ratio
SMILES,"Anti-pyretic activity, inhibitory ratio of febril index (FI) [2]","inhibition in vivo at 100 mg/kg [5, 7]","Acute toxicity, death number of mice/number of mice tested (ddy strain of male mice [6]; 1000 mg/kg)","Acute toxicity, death number of mice/number of mice tested (ddy strain of male mice [6]; 2000 mg/kg)",inhibition in vivo at 100 mg/kg (ddy strain of male mice [3]; [8]),"Analgesic activity, Haffner method, inhibitory ratio (ddy strain of male mice [4])",other results
"CN(C)C(=O)N(C)C(=O)Nc1ccccc1 [Compound No. 1, 1,1,3-Trimethyl-5-phenylbiuret]",80%,59%,,,,,"LD50 at 168 h ([1]; oral, mice, 7 days): 1710 mg/kg; ED50 (ddy strain of male mice [3]; po): 75 mg/kg; Analgesic activity, Haffner method, 50% effective dose, ED50 (values with Δ marks) (ddy strain of male mice [4]): 68(52-88) mg/kg"
"CN(C)C(=O)N(C)C(=O)Nc1ccccc1F [Compound No. 2, 1,1,3-Trimethyl-5-(2-fluorophenyl)biuret]",76%,,1/4,4/4,62.5%,75%,"inhibition in vivo at 100 mg/kg [5, 9]: 63%"
"COc1cc(NC(=O)N(C)C(=O)N(C)C)cc(OC)c1OC [Compound No. 19, 1,1,3-Trimethyl-5-(3,4,5-trimethoxyphenyl)biuret]",23%,30%,2/4,,,62.5%,"Acute toxicity, death number of mice/number of mice tested (ddy strain of male mice [6]; 500 mg/kg): 0/4; ED50 (ddy strain of male mice [3]; oral, mice, range in parentheses): 38 mg/kg"
"Cc1ccc(NC(=O)N(C)C(=O)N(C)C)cc1 [Compound No. 22, 1,1,3-Trimethyl-5-(4-methylphenyl)biuret]",52%,,,0/4,,,"ED50 (ddy strain of male mice [3]; po): 33 mg/kg; Analgesic activity, Haffner method, 50% effective dose, ED50 (values with Δ marks) (ddy strain of male mice [4]): 80(42-152) mg/kg; inhibition in vivo at 100 mg/kg [5, 10]: 23%"
"CCCN(C)C(=O)N(C)C(=O)Nc1ccccc1 [Compound No. 34, 1,3-dimethyl-1-propyl-5-phenylbiuret]",44%,,1/4,4/4,,37.5%,"inhibition in vivo at 60 mg/kg (ddy strain of male mice [3]; [8]): 75%; inhibition in vivo at 100 mg/kg [5, 10]: 26%"
"CN(C)C(=O)N(C)C(=O)Nc1c(F)c(F)cc(F)c1F [compound 4, 1,1,3-Trimethyl-5-(2,3,5,6-tetrafluorophenyl)-biuret]",33%,24%,4/4,,87.5%,50%,"Acute toxicity, death number of mice/number of mice tested (ddy strain of male mice [6]; 500 mg/kg): 0/4"
"CN(C)C(=O)N(C)C(=O)Nc1ccccc1Cl [compound 5, 1,1,3-Trimethyl-5-(2-chlorophenyl)biuret]",66%,,,0/4,50%,37.5%,"inhibition in vivo at 100 mg/kg [5, 9]: 38%"
"CN(C)C(=O)N(C)C(=O)Nc1ccccc1C(F)(F)F [compound 12, 1,1,3-Trimethyl-5-(2-trifluoromethylphenyl)biruet]",65%,66%,1/4,,12.5%,37.5%,
"CN(C)C(=O)N(C)C(=O)Nc1cccc(C(F)(F)F)c1 [compound 13, 1,1,3-Trimethyl-5-(3-trifluoromethylphenyl)biuret]",62%,,0/4,4/4,37.5%,,"Analgesic activity, Haffner method, 50% effective dose, ED50 (values with Δ marks) (ddy strain of male mice [4]): 64(37-112) mg/kg; inhibition in vivo at 100 mg/kg [5, 10]: 32%"
"CN(C)C(=O)N(C)C(=O)Nc1ccc(N(C)C)cc1 [compound 14, 1,1,3-Trimethyl-5-(4-dimethylaminophenyl)biuret]",26%,,,0/4,62.5%,50%,"inhibition in vivo at 100 mg/kg [5, 11]: 32%"
"CN(C)C(=O)N(C)C(=O)Nc1ccc([N+](=O)[O-])cc1 [compound 15, 1,1,3-Trimethyl-5-(4-nitrophenyl)biuret]",26%,32%,,,,50%,"Acute toxicity, death number of mice/number of mice tested (ddy strain of male mice [6]; 500 mg/kg): 2/4; inhibition in vivo at 100 mg/kg (ddy strain of male mice [3]; [12]): 100%"
"COc1ccccc1NC(=O)N(C)C(=O)N(C)C [compound 16, 1,1,3-Trimethyl-5-(2-methoxyphenyl)biuret]",13%,,0/4,2/4,37.5%,25%,"inhibition in vivo at 100 mg/kg [5, 11]: 35%"
"Cc1cccc(NC(=O)N(C)C(=O)N(C)C)c1 [compound 21, 1,1,3-Trimethyl-5-(3-methylphenyl)biuret]",31%,28%,,2/4,75%,37.5%,
"Cc1cccc(C)c1NC(=O)N(C)C(=O)N(C)C [compound 24, 1,1,3-Trimethyl-5-(2,6-dimethylphenyl)biuret]",69%,,,,75%,37.5%,"LD50 at 168 h ([1]; oral, mice, 7 days): 595 mg/kg"
"CC(=O)c1ccc(NC(=O)N(C)C(=O)N(C)C)cc1 [compound 27, 1,1,3-Trimethyl-5-(4-acetylphenyl)biuret]",36%,,4/4,,,37.5%,"Acute toxicity, death number of mice/number of mice tested (ddy strain of male mice [6]; 500 mg/kg): 0/4; inhibition in vivo at 100 mg/kg (ddy strain of male mice [3]; [12]): 62.5%; inhibition in vivo at 100 mg/kg [5, 10]: 31%"
"CN(C)C(=O)N(C)C(=O)NC1CCCCC1 [compound 29, 1,1,3-Trimethyl-5-cychlohexylbiuret]",,,,,,25%,"LD50 at 168 h ([1]; po): 1450 mg/kg; inhibition in vivo at 200 mg/kg (ddy strain of male mice [3]; [8]): 87.5%; inhibition in vivo at 100 mg/kg [5, 11]: 24%"
"CCN(C(=O)Nc1ccccc1)C(=O)N(C)C [compound 30, 1,1-Dimethyl-3-ethyl-5-phenylbiuret]",12%,23%,0/4,3/4,62.5%,,
"CCN(C)C(=O)N(C)C(=O)Nc1ccccc1 [compound 33, 1-Ethyl-1,3-dimethyl-5-phenylbiuret]",49%,,,,,,"LD50 at 168 h ([1]; oral, mice, 7 days): 1290 mg/kg; inhibition in vivo at 80 mg/kg (ddy strain of male mice [3]; [8]): 50%; inhibition in vivo at 100 mg/kg [5, 9]: 34%"
